{
  "source": "patent US20070190143A1",
  "about": "“Disintegrating tablets comprising licarb azepine” (priority 2004, published 2007)",
  "test": "solubility in water",
  "type": "physicochemical",
  "settings": "25° C.",
  "excerpt": "Licarbazepine is indicated to be suitable for the treatment of psychosomatic disturbances, epilepsy, trigeminal neuralgia and cerebral spasticity. […] The mechanisms by which the compounds of the invention exert their anticonvulsant effects are not completely understood, but their activity may be partly due to effects on ion flow across neuronal membranes. However, pharmacokinetics, absorption sites and mechanisms of action of the compounds of the invention are not understood in detail. Licarbazepine is slightly soluble in water (3.2 mg/ml at 25° C.). In view of this physical property, a parenteral formulation of licarbazepine can be prepared as described, e. g., in EP-1 033 988. Despite the merits of the known parenteral dosage form, there remains a need to establish an advantageous oral dosage form of the compounds of the invention. One of the problems that may occur using an oral dosage form is the fluctuation of blood levels of the compounds of the invention on repeated administration, which may be associated with side effects.",
  "data": [
    {"smiles": "NC(=O)N1c2ccccc2CC(O)c2ccccc21", "note": "(racemic) [Licarbazepine, 10,11-dihydro-10-hydroxy-5H-dibenz[b,f]azepine-5-carboxamide]", "values": [
      {"measurement": "solubility", "result": 3200, "unit": "µg/mL"}
    ]}
  ]
}
